From US9801889B2, “Bicyclic heterocycles as FGFR4 inhibitors” (Incyte Corporation, priority 2015, dated 2017)

Columns and labels:
FGFR4 = FGFR4 (Homo sapiens (Human), UniProt P22455); test: FGFR Enzymatic Assay (FRET peptide phosphorylation), FGFR4
Text: (§1) The enzymes were purchased from Millipore or Invitrogen.
(§2) GraphPad prism3 was used to analyze the data. The IC50 values were derived by fitting the data to the equation for a sigmoidal dose-response with a variable slope. Y=Bottom+(Top-Bottom)/(1+10^((LogIC50-X)*HillSlope)) where X is the logarithm of concentration and Y is the response.

FGFR3 = FGFR3 (Homo sapiens (Human), UniProt P22607); test: FGFR Enzymatic Assay (FRET peptide phosphorylation), FGFR3; conditions: IC50 ratio showing FGFR4 selectivity
Text: as §1, §2

FGFR1 = FGFR1 (Homo sapiens (Human), UniProt P11362); test: FGFR Enzymatic Assay (FRET peptide phosphorylation), FGFR1; conditions: IC50 ratio showing FGFR4 selectivity
Text: as §1, §2

FGFR2 = FGFR2 (Homo sapiens (Human), UniProt P21802); test: FGFR Enzymatic Assay (FRET peptide phosphorylation), FGFR2; conditions: IC50 ratio showing FGFR4 selectivity
Text: as §1, §2

[1] = pre-incubated for 5 to 10 minutes

FGFR1, sequence (P11362 22-822): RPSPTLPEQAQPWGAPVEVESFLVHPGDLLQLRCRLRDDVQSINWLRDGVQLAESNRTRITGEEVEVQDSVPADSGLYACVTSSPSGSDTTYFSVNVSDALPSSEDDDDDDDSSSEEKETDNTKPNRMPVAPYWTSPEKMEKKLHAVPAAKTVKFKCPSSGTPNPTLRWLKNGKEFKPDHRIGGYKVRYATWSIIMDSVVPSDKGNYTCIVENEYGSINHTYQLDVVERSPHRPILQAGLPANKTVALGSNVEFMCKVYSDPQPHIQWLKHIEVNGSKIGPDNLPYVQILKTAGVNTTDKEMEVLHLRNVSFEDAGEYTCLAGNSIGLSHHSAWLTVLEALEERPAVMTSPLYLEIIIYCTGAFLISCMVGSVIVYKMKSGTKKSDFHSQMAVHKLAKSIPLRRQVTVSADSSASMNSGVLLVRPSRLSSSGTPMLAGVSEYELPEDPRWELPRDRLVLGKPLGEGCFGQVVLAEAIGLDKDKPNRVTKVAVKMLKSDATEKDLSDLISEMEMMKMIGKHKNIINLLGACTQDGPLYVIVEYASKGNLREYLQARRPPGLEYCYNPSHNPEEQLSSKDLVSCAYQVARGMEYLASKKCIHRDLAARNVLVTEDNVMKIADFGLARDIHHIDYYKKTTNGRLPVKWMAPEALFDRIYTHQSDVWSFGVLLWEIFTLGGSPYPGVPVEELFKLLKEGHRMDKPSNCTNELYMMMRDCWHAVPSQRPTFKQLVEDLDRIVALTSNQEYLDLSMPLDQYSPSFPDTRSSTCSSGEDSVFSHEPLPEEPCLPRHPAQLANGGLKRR
FGFR3, sequence (P22607 23-806): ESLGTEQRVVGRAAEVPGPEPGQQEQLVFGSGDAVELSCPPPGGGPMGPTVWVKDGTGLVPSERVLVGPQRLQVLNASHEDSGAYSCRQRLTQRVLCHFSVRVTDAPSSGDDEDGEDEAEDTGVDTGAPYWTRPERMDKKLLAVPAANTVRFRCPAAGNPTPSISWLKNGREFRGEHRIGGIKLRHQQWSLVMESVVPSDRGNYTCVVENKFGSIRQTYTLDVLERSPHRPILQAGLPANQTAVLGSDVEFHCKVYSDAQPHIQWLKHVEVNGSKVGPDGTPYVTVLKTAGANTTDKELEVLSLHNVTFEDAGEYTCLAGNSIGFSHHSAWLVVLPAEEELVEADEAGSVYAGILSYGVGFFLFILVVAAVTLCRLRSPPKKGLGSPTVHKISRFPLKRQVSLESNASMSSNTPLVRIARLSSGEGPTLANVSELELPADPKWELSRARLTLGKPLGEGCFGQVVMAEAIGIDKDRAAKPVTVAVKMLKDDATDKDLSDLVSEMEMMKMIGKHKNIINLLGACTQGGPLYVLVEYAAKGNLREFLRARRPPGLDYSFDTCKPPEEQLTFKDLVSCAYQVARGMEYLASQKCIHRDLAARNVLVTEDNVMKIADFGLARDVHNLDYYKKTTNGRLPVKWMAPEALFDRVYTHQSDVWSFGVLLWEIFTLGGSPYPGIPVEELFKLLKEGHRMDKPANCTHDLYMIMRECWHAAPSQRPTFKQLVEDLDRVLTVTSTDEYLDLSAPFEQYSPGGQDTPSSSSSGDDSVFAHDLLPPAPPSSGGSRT
FGFR2, sequence (P21802 22-821): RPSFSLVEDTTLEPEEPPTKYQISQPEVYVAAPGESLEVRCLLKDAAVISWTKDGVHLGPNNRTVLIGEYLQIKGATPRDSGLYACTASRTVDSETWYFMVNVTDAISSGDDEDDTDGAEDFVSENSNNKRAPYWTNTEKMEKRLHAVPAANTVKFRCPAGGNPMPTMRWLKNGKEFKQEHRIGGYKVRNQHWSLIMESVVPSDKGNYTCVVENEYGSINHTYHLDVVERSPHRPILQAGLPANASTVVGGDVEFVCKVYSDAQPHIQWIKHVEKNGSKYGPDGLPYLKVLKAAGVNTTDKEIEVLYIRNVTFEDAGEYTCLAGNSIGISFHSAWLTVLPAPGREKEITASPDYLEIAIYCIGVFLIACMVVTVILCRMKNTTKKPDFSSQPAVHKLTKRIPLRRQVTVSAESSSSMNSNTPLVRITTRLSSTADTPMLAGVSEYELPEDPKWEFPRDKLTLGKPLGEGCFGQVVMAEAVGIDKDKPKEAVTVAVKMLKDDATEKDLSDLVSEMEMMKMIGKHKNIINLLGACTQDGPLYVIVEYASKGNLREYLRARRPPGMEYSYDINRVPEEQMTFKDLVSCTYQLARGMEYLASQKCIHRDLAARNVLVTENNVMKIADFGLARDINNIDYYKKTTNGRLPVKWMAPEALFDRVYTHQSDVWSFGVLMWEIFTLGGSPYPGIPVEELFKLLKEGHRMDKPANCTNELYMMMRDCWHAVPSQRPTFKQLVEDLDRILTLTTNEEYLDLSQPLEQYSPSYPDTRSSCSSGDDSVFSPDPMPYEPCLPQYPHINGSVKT
FGFR4, sequence (P22455 22-802): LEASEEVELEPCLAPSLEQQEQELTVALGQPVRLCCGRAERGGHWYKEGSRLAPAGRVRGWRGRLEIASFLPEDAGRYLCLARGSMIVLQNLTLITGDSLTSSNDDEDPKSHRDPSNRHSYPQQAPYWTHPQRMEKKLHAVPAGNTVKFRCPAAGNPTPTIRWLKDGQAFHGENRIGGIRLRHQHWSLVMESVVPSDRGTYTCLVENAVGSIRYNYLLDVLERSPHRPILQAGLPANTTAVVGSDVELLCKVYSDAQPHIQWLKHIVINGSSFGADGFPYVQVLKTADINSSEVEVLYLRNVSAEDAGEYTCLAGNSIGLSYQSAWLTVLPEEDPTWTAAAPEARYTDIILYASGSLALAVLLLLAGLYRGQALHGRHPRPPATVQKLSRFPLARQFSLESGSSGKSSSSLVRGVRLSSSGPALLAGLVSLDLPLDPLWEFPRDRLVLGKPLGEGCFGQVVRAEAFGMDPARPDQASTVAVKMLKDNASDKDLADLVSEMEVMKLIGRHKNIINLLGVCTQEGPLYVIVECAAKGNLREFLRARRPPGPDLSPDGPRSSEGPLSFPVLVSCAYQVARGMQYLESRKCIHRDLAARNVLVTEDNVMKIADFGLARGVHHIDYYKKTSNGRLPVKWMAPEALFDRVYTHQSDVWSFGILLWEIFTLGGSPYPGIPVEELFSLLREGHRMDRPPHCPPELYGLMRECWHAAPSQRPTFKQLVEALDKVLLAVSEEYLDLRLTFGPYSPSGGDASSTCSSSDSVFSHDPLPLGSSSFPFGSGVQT

Row | SMILES | FGFR3/FGFR4 (FGFR3; pre-incubated for 4 hours) | FGFR1/FGFR4 (FGFR1; pre-incubated for 4 hours) | FGFR2/FGFR4 (FGFR2; pre-incubated for 4 hours) | FGFR3/FGFR4 (FGFR3; [1]) | FGFR1/FGFR4 (FGFR1; [1]) | FGFR2/FGFR4 (FGFR2; [1]) | IC50 (FGFR4) [nM]
1 | C=CC(=O)Nc1cnn(CC(=O)NC)c1-c1cc2c(cn1)CN(c1c(F)c(OC)cc(OC)c1F)C(=O)C21CC1 [Example 20, N-(5-(2′-(2,6-difluoro-3,5-dimethoxyphenyl)-3′-oxo-2′,3′-dihydro-1′H-spiro[cyclopropane-1,4′-[2,7]naphthyridine]-6′-yl)-1-(2-(methylamino)-2-oxoethyl)-1H-pyrazol-4-yl)acrylamide] | >100 | >50 | >100 |  |  |  | 10 to 30
2 | C=CC(=O)Nc1cnn(CCOCC)c1-c1cc2c(cn1)CN(c1c(F)c(OC)cc(OC)c1F)C(=O)C21CC1 [Example 16, N-(5-(2′-(2,6-difluoro-3,5-dimethoxyphenyl)-3′-oxo-2′,3′-dihydro-1′H-spiro[cyclopropane-1,4′-[2,7]naphthyridine]-6′-yl)-1-(2-ethoxyethyl)-1H-pyrazol-4-yl)acrylamide] | >100 | >100 | >100 |  |  |  | 
3 | C=CC(=O)Nc1cnn(C[C@H]2CCCO2)c1-c1cc2c(cn1)CN(c1c(F)c(OC)cc(OC)c1F)C(=O)C21CC1 [Example 30] | >100 | >100 | >100 |  |  |  | 
4 | C=CC(=O)Nc1cc(-c2cc3c(cn2)CN(c2c(F)c(OC)cc(OC)c2F)C(=O)C32CC2)cc(N2CCOCC2)c1 [Example 10, N-{3-[2′-(2,6-difluoro-3,5-dimethoxyphenyl)-3′-oxo-2′,3′-dihydro-1′H-spiro[cyclopropane-1,4′-[2,7]naphthyridin]-6′-yl]-5-morpholin-4-ylphenyl}acrylamide] | >100 | >100 | >100 | >100 | >100 | >100 | 
5 | C=CC(=O)Nc1cnn(Cc2cnn(C)c2)c1-c1cc2c(cn1)CN(c1c(F)c(OC)cc(OC)c1F)C(=O)C21CC1 [Example 27, N-(5-(2′-(2,6-difluoro-3,5-dimethoxyphenyl)-3′-oxo-2′,3′-dihydro-1′H-spiro[cyclopropane-1,4′-[2,7]naphthyridine]-6′-yl)-1-((1-methyl-1H-pyrazol-4-yl)methyl)-1H-pyrazol-4-yl)acrylamide] | >100 | >100 | >100 |  |  |  | 
6 | C=CC(=O)Nc1cnn(Cc2ncn(C)n2)c1-c1cc2c(cn1)CN(c1c(F)c(OC)cc(OC)c1F)C(=O)C21CC1 [Example 23, N-(5-(2′-(2,6-difluoro-3,5-dimethoxyphenyl)-3′-oxo-2′,3′-dihydro-1′H-spiro[cyclopropane-1,4′-[2,7]naphthyridine]-6′-yl)-1-((1-methyl-1H-1,2,4-triazol-3-yl)methyl)-1H-pyrazol-4-yl)acrylamide] | >100 | >100 | >100 |  |  |  | 
7 | C=CC(=O)Nc1cnn(CC2CCOCC2)c1-c1cc2c(cn1)CN(c1c(F)c(OC)cc(OC)c1F)C(=O)C21CC1 [Example 24, N-(5-(2′-(2,6-difluoro-3,5-dimethoxyphenyl)-3′-oxo-2′,3′-dihydro-1′H-spiro[cyclopropane-1,4′-[2,7]naphthyridine]-6′-yl)-1-((tetrahydro-2H-pyran-4-yl)methyl)-1H-pyrazol-4-yl)acrylamide] | >100 | >100 | >100 |  |  |  | 
8 | C=CC(=O)Nc1cc(-c2cc3c(cn2)CN(c2c(F)c(OC)cc(OC)c2F)C(=O)C32CC2)ccc1CN1CCOCC1 [Example 12, N-(5-(2′-(2,6-difluoro-3,5-dimethoxyphenyl)-3′-oxo-2′,3′-dihydro-1′H-spiro[cyclopropane-1,4′-[2,7]naphthyridine]-6′-yl)-2-(morpholinomethyl)phenyl)acrylamide] | >10 | >100 | >25 | >1 | >10 | >1 | 

Continued, in another order:

Row | FGFR3/FGFR4 (FGFR3; pre-incubated for 4 hours) | FGFR1/FGFR4 (FGFR1; pre-incubated for 4 hours) | FGFR2/FGFR4 (FGFR2; pre-incubated for 4 hours) | FGFR3/FGFR4 (FGFR3; [1]) | FGFR1/FGFR4 (FGFR1; [1]) | FGFR2/FGFR4 (FGFR2; [1]) | SMILES | IC50 (FGFR4) [nM]
9 | >100 | >100 | >100 |  |  |  | C=CC(=O)Nc1cn(CCOC)nc1-c1cc2c(cn1)CN(c1c(F)c(OC)cc(OC)c1F)C(=O)C21CC1 [Example 32, N-(3-(2′-(2,6-difluoro-3,5-dimethoxyphenyl)-3′-oxo-2′,3′-dihydro-1′H-spiro[cyclopropane-1,4′-[2,7]naphthyridine]-6′-yl)-1-(2-methoxyethyl)-1H-pyrazol-4-yl)acrylamide] | 
10 | >100 | >100 | >50 |  |  |  | C=CC(=O)Nc1cnn(Cc2ccncc2)c1-c1cc2c(cn1)CN(c1c(F)c(OC)cc(OC)c1F)C(=O)C21CC1 [Example 21, N-(5-(2′-(2,6-difluoro-3,5-dimethoxyphenyl)-3′-oxo-2′,3′-dihydro-1′H-spiro[cyclopropane-1,4′-[2,7]naphthyridine]-6′-yl)-1-(pyridin-4-ylmethyl)-1H-pyrazol-4-yl)acrylamide] | 
11 | >100 | >100 | >100 |  |  |  | C=CC(=O)Nc1ccc(C)c(-c2ncc3c(n2)C2(CC2)C(=O)N(c2c(F)c(OC)cc(OC)c2F)C3)c1 [Example 37, N-(3-(6′-(2,6-difluoro-3,5-dimethoxyphenyl)-7′-oxo-6′,7′-dihydro-5′H-spiro[cyclopropane-1,8′-pyrido[4,3-d]pyrimidine]-2′-yl)-4-methylphenyl)acrylamide] | 
12 | >100 | >100 | >100 |  |  |  | C=CC(=O)Nc1cn(CC2CCOCC2)nc1-c1cc2c(cn1)CN(c1c(F)c(OC)cc(OC)c1F)C(=O)C21CC1 [Example 35, N-(3-(2′-(2,6-difluoro-3,5-dimethoxyphenyl)-3′-oxo-2′,3′-dihydro-1′H-spiro[cyclopropane-1,4′-[2,7]naphthyridine]-6′-yl)-1-((tetrahydro-2H-pyran-4-yl)methyl)-1H-pyrazol-4-yl)acrylamide] | 
